Legend:
Assay in all cases: relative viability (nuclei count vs DMSO), 5 days (fraction); higher = more cells survive
BAY61-3606 + Alpelisib = compound: COC1=C(C=C(C=C1)C2=CC3=NC=CN3C(=N2)NC4=C(C=CC=N4)C(=O)N)OC [BAY61-3606] + Cc1nc(NC(=O)N2CCC[C@H]2C(N)=O)sc1-c1ccnc(C(C)(C)C(F)(F)F)c1 [Alpelisib] (partner 2 µM)
How it was run: (§1)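 Cells from lung cancer lines were seeded into 1536-well plates and, one day later, dosed by pin tool. Treatments were either a single drug or a fixed dose of an anchor drug with five library-drug doses (not always all listed) in √10 steps. After 5 days, nuclei were stained in a one-step fixation (final 0.05% Triton X-100, 1% formaldehyde, 1 ug/ml Hoechst) and counted on 4× images, and relative viability is the treated-to-vehicle nuclei ratio, as the median of duplicate plates.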

Doxorubicin + Bortezomib = compound: COc1cccc2c1C(=O)c1c(O)c3c(c(O)c1C2=O)C[C@@](O)(C(=O)CO)C[C@@H]3O[C@H]1C[C@H](N)[C@H](O)[C@H](C)O1 [Doxorubicin] + CC(C)C[C@H](NC(=O)[C@H](Cc1ccccc1)NC(=O)c1cnccn1)B(O)O [Bortezomib] (partner 0.002 µM)
How it was run: as §1

Doxorubicin + Linsitinib = compound: COc1cccc2c1C(=O)c1c(O)c3c(c(O)c1C2=O)C[C@@](O)(C(=O)CO)C[C@@H]3O[C@H]1C[C@H](N)[C@H](O)[C@H](C)O1 [Doxorubicin] + C[C@]1(O)C[C@@H](c2nc(-c3ccc4ccc(-c5ccccc5)nc4c3)c3c(N)nccn32)C1 [Linsitinib] (partner 1 µM)
How it was run: as §1

BAY61-3606 + Olaparib = compound: COC1=C(C=C(C=C1)C2=CC3=NC=CN3C(=N2)NC4=C(C=CC=N4)C(=O)N)OC [BAY61-3606] + O=C(c1cc(Cc2n[nH]c(=O)c3ccccc23)ccc1F)N1CCN(C(=O)C2CC2)CC1 [Olaparib] (partner 8 µM)
How it was run: as §1

Row | Cell Line | relative viability (BAY61-3606 + Alpelisib; first compound 0.02 µM) | relative viability (BAY61-3606 + Alpelisib; first compound 0.06325 µM) | relative viability (BAY61-3606 + Alpelisib; first compound 0.2 µM) | relative viability (BAY61-3606 + Alpelisib; first compound 0.6325 µM) | relative viability (BAY61-3606 + Alpelisib; first compound 2 µM) | relative viability (Doxorubicin + Bortezomib; first compound 0.001 µM) | relative viability (Doxorubicin + Bortezomib; first compound 0.003162 µM) | relative viability (Doxorubicin + Bortezomib; first compound 0.01 µM) | relative viability (Doxorubicin + Bortezomib; first compound 0.03162 µM) | relative viability (Doxorubicin + Bortezomib; first compound 0.1 µM) | relative viability (Doxorubicin + Linsitinib; first compound 0.001 µM) | relative viability (Doxorubicin + Linsitinib; first compound 0.003162 µM) | relative viability (Doxorubicin + Linsitinib; first compound 0.01 µM) | relative viability (Doxorubicin + Linsitinib; first compound 0.03162 µM) | relative viability (Doxorubicin + Linsitinib; first compound 0.1 µM) | relative viability (BAY61-3606 + Olaparib; first compound 0.02 µM) | relative viability (BAY61-3606 + Olaparib; first compound 0.06325 µM) | relative viability (BAY61-3606 + Olaparib; first compound 0.2 µM) | relative viability (BAY61-3606 + Olaparib; first compound 0.6325 µM) | relative viability (BAY61-3606 + Olaparib; first compound 2 µM)
1 | NCI-H1792 | 0.743 | 0.673 | 0.74 | 0.751 | 0.674 | 0.929 | 1.1 | 1 | 0.898 | 0.924 | 0.563 | 0.612 | 0.543 | 0.455 | 0.474 | 0.66 | 0.463 | 0.294 | 0.286 | 0.282
2 | NCI-H2085 | 0.994 | 0.977 | 1.04 | 0.949 | 0.871 | 0.903 | 1.05 | 0.907 | 0.709 | 0.716 | 1.03 | 0.927 | 0.815 | 0.716 | 0.82 | 0.863 | 0.868 | 0.726 | 0.843 | 0.698
3 | NCI-H2023 | 0.614 | 0.607 | 0.604 | 0.6 | 0.471 | 0.456 | 0.889 | 0.69 | 0.152 | 0.0962 | 0.642 | 0.62 | 0.549 | 0.279 | 0.102 | 0.515 | 0.623 | 0.481 | 0.496 | 0.257

From the supplement of paper PMC10307832
